Where two headings read alike, the source gives them in different places. Blank lines part the entries; values can stand above or below the compound they belong to.
Key:
HCA1 [1] = settings: cited from earlier work
HCA1 E166^45.51I = target: T1, HCA1 E166^45.51I (Homo sapiens, UniProt Q9BXC0, E166I); assay: cAMP reporter assay, HCA1 mutant E166I; assay type: cell-based; settings: HCA1 E166I (Figure 2f)
T1 construct: expressed in transfected cells; host or cells: HEK293
Method: (§1) Human embryonic kidney 293 (HEK293) cells were maintained in Dulbecco’s modified Eagle’s medium (DMEM) containing 10% fetal bovine serum (FBS) and antibiotics (100 U/mL penicillin and 100 μg/mL streptomycin) at 37 °C, 5% CO2. Cells (1 × 10^6 per well) were seeded on 6-well plates for 15 h and transiently transfected with a transfection cocktail containing 2 μg of plasmid DNA (1 μg of the target plasmid and 1 μg of pCRE-luc) and 6 μL of X-tremeGENE HP DNA transfection reagents dissolved in 200 μL of phenol red-free OPTI MEM. After 24 h incubation, the medium containing the transfection cocktail was replaced with a serum-supplemented normal culture medium, and cells were plated at a density of approximately 40000 cells/well in white opaque 96-well microplates for an additional 24 h. After 24 h, fresh medium with varied concentrations of ligands was added to the wells, and cells were incubated for 30 min at 37 °C, 5% CO2. Then, forsklin with a final concentration of 5 μM was added to each well for 6 h. Then, all of the medium was removed and 40 μL of Bright-Glo Luciferase Assay System reagent (Promega, U.K.) was added to each well. Luminance was measured in a luminometer (TECAN Spark, CH) after 10 min incubation.

HCA1 R99A = target: T2, HCA1 R99A (Homo sapiens, UniProt Q9BXC0, R99A); assay: cAMP reporter assay, HCA1 mutant R99A; assay type: cell-based; settings: HCA1 R99A (Figure 2f)
T2 construct: expressed in transfected cells; host or cells: HEK293
T2 sequence (Q9BXC0 whole entry R99A): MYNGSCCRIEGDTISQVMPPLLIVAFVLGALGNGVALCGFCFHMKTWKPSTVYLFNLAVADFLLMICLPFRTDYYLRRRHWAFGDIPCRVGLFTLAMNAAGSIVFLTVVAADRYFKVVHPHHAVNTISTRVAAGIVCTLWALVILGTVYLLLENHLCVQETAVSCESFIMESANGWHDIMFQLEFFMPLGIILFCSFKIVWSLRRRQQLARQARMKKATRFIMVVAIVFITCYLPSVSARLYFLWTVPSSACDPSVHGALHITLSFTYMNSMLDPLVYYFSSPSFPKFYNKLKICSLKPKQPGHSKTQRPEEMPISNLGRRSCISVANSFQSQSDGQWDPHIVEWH
Method: as §1

HCA1 [2] = target: T3, HCA1 (Homo sapiens, UniProt Q9BXC0); assay: cAMP inhibition (CRE-luc reporter) assay, HCA1 wild type; assay type: cell-based; settings: HEK293 cells, mean ± SEM (Table S2a,b)
T3 construct: expressed in transfected cells; host or cells: HEK293
T3 sequence (Q9BXC0 whole entry): as the sequence (Q9BXC0 whole entry R99A) above, with A99R counted along it
Method: as §1

HCA1 R240^6.55A = target: T4, HCA1 R240^6.55A (Homo sapiens, UniProt Q9BXC0, R240A); assay: cAMP reporter assay, HCA1 mutant R240A; assay type: cell-based; settings: HCA1 R240A versus wild type (Figure 2f)
T4 construct: expressed in transfected cells; host or cells: HEK293
T4 sequence (Q9BXC0 whole entry R240A): as the sequence (Q9BXC0 whole entry R99A) above, with A99R, R240A counted along it
Method: as §1

HCA1 E166^45.51A = target: T5, HCA1 E166^45.51A (Homo sapiens, UniProt Q9BXC0, E166A); assay: cAMP reporter assay, HCA1 mutant E166A; assay type: cell-based; settings: HCA1 E166A (Figure 2f)
T5 construct: expressed in transfected cells; host or cells: HEK293
T5 sequence (Q9BXC0 whole entry E166A): as the sequence (Q9BXC0 whole entry R99A) above, with A99R, E166A counted along it
Method: as §1

HCA1 H261^7.36F = target: T6, HCA1 H261^7.36F (Homo sapiens, UniProt Q9BXC0, H261F); assay: cAMP reporter assay, HCA1 mutant H261F; assay type: cell-based; settings: HCA1 H261F (Figure 2f)
T6 construct: expressed in transfected cells; host or cells: HEK293
T6 sequence (Q9BXC0 whole entry H261F): as the sequence (Q9BXC0 whole entry R99A) above, with A99R, H261F counted along it
Method: as §1

[3] = target: T7, HCA3(1–129)/HCA2(130-) S178^45.51I (Homo sapiens, UniProt Q8TDS4, L107F/L83V/M103V/N86Y/S178I/V27A/W91S); assay: IP1 accumulation assay, chimera HCA3(1–129)/HCA2(130-) with S178I; assay type: cell-based; settings: HCA3(1–129)/HCA2(130-) with mutation S178I (Figure 3d)
T7 construct: swap the amino acid segments 1–129 between HCA2 and HCA3; creating chimeras HCA2(1–129)/HCA3(130-) and HCA3(1–129)/HCA2(130-); expressed in transfected cells; host or cells: HEK293
T7 sequence (Q8TDS4 whole entry V27A/L83V/N86Y/W91S/M103V/L107F/S178I): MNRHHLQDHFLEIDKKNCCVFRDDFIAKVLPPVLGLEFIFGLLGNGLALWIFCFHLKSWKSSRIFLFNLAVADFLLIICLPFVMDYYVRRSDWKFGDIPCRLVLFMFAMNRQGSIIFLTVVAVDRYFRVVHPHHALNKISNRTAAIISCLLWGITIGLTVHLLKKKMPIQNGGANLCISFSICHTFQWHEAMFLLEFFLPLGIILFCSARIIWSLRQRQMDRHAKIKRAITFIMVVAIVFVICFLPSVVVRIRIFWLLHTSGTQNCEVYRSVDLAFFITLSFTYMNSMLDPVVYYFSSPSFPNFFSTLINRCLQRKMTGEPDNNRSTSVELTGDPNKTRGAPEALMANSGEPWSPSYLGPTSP

HCA2(1–129)/HCA3(130-) = target: T8, HCA2(1–129)/HCA3(130-) (Homo sapiens, UniProt Q8TDS4, G173T/I156V/L176V/M167L/M317I/M346I/P168L/Q187R/R142W/R253H/S178I); assay: IP1 accumulation assay, chimera HCA2(1–129)/HCA3(130-); assay type: cell-based; settings: IP1 accumulation (Figure 3d)
T8 construct: swap the amino acid segments 1–129 between HCA2 and HCA3; creating chimeras HCA2(1–129)/HCA3(130-) and HCA3(1–129)/HCA2(130-); expressed in transfected cells; host or cells: HEK293
T8 sequence (Q8TDS4 with tags, fused parts or gaps with the stated changes): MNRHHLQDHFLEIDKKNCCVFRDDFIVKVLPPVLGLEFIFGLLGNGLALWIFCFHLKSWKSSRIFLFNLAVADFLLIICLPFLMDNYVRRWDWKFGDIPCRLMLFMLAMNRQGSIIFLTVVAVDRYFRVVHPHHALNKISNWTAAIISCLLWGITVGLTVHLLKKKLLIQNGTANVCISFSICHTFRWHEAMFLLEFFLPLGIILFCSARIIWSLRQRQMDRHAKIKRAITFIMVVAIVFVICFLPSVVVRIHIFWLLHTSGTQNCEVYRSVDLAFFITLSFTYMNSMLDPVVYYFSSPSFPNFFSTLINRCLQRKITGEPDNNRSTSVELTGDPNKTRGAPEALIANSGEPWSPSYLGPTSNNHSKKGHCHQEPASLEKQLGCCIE
Method: The HCA1/HCA2/HCA3 plasmid was transfected into the HEK293 cells (Invitrogen) and cultured for 2 days. The HEK293 cells expressing HCA1/HCA2/HCA3 were washed by PBS and resuspended by the stimulation buffer from a Cisbio Bioassays’ IP-One Gq kit. […] After incubation at 37 °C for 90 min, 3μl Tb Cryptate Antibody and 3μl IP1 d2 Reagent were added to 384-well plates per well. […] The data was analyzed by GraphPad Prism 8.4.0 (GraphPad Software).

[4] = target: T9, HCA2(1–129)/HCA3(130-) N86^2.63Y W91^ECL1S (Homo sapiens, UniProt Q8TDS4, G173T/I156V/L176V/M167L/M317I/M346I/N86Y/P168L/Q187R/R142W/R253H/S178I/W91S); assay: IP1 accumulation assay, chimera HCA2(1–129)/HCA3(130-) with N86Y and W91S; assay type: cell-based; settings: HCA2(1–129)/HCA3(130-) with N86Y and W91S (Figure 3d)
T9 construct: swap the amino acid segments 1–129 between HCA2 and HCA3; creating chimeras HCA2(1–129)/HCA3(130-) and HCA3(1–129)/HCA2(130-); expressed in transfected cells; host or cells: HEK293
T9 sequence (Q8TDS4 with tags, fused parts or gaps with the stated changes): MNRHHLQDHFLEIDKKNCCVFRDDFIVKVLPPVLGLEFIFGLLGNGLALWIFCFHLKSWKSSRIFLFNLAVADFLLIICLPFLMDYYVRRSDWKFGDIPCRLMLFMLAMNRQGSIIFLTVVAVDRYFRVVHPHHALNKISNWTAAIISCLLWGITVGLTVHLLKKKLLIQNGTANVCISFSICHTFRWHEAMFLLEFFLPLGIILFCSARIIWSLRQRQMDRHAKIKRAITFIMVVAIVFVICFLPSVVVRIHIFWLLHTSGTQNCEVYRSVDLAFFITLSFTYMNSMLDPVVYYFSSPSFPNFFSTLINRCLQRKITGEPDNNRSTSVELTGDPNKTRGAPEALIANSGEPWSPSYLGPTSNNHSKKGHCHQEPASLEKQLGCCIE

HCA3(1–129)/HCA2(130-) = target: T10, HCA3(1–129)/HCA2(130-) (Homo sapiens, UniProt P49019, H253R/I178S/I317M/I346M/L167M/L168P/R187Q/T173G/V156I/V176L/W142R); assay: IP1 accumulation assay, chimera HCA3(1–129)/HCA2(130-); assay type: cell-based; settings: IP1 accumulation (Figure 3d)
T10 construct: swap the amino acid segments 1–129 between HCA2 and HCA3; creating chimeras HCA2(1–129)/HCA3(130-) and HCA3(1–129)/HCA2(130-); expressed in transfected cells; host or cells: HEK293
T10 sequence (P49019 with tags, fused parts or gaps with the stated changes): as the sequence (Q8TDS4 whole entry V27A/L83V/N86Y/W91S/M103V/L107F/S178I) above, with I178S counted along it

T1 sequence (Q9BXC0 whole entry E166I): as the sequence (Q9BXC0 whole entry R99A) above, with A99R, E166I counted along it

Compound: 3-hydroxybutyric acid [3-HBA]
- EC50 (HCA1 [1]; HCA1): ~184 µM

Compound: CCOc1cc(Cl)c(C(=O)NC(=O)Nc2nc3ccc(CN4CCN(C)CC4)cc3s2)cc1N1CCOCC1 [AZ2, 2-chloro-4-ethoxy-N-[[6-[(4-methylpiperazin-1-yl)methyl]-1,3-benzothiazol-2-yl]carbamoyl]-5-morpholino-benzamide]
- EC50 (HCA1 [1]; HCA1): 0.07 to 0.18 µM

Continued, in another order:

- activation efficacy compared with the wild type (HCA1 E166^45.51I): halving of the activation efficacy
- potency at mutant (HCA1 R99A): complete loss of potency
- pEC50 (HCA1 [2]): 3.7 ± 0.1
- reduction of activation efficacy (HCA1 R240^6.55A): around 50%
- receptor activation (HCA1 E166^45.51A): inactivity
- efficacy compared with H261A (HCA1 H261^7.36F): marked decrease of efficacy
Compound: O=C(O)c1cc(O)cc(O)c1 [3,5-DHBA, 3,5-dihydroxybenzoic acid]

- activation of chimera [3]: highest potency
- activation of chimera (HCA2(1–129)/HCA3(130-)): failed to activate
- activation of chimera [4]: did not facilitate activation
- activation of chimera (HCA3(1–129)/HCA2(130-)): capable of activating
Compound: CCCCCC(O)CC(=O)O (stereo not drawn) [3-HO, 3-hydroxy-octanoic acid]

- potency at mutant (HCA1 R99A): complete loss of potency
- pEC50 (HCA1 [2]): 3.2 ± 0.3
Compound: CC(O)C(=O)O (stereo not drawn) [lactate]
- EC50 (HCA1 [1]; HCA1, endogenous agonist): 1000 to 5000 µM
